We go through 17 compounds from patent EP4745134A1 (Jiangsu Yahong Meditech Co., Ltd., priority 2023, dated 2025).

For one test, the target named is PRMT5-MTA (Homo sapiens, UniProt O14744). The test can be described thus: Enzymatic inhibitory activity against PRMT5-MTA (AlphaScreen). The class given is biochemical. The note with it: read-out: IC50. The procedure, abridged:
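PRMT5/[…] (1 nM) was preincubated for 30 min at room temperature with 1 µM […] and 2.5 µM SAM, then exposed to compound (10-point, 3-fold from 1000 nM) for 15 min at 23 °C. Histone H4 substrate (5 nM) was added and reacted for 45 min at 23 °C. Symmetric dimethyl-R3 H4 was detected by AlphaScreen and IC50 calculated.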

The next test concerns HCT116 MTAP KO cells. The test can be described thus: Inhibitory activity against cell proliferation (CellTiter Glo, 6 days), HCT116 MTAP KO. The class given is cell-based. The note with it: for IC50: Homo sapiens, HCT-116, 144 h, HCT116 MTAP KO cells, 6 days, CellTiter Glo, read-out: HCT116 MTAP KO IC50; for Selectivity HCT 116-WT/ HCT116 MTAP KO: ratio of IC50 HCT116-WT / HCT116 MTAP KO. The procedure, abridged: (§1)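 Viability is measured by CellTiter Glo luminescence on day 7, following a 6-day treatment with compounds serially diluted 4-fold over 8 points from 10000 nM. Both lines are plated at 250 cells per well and cultured overnight beforehand.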
On the technique in general: Cellular ATP, detected with luciferase, serves as a proxy for viable cell number.

For the next test, the system named is HCT116-WT cells. The test can be described thus: Inhibitory activity against cell proliferation (CellTiter Glo, 6 days), HCT116-WT. The class given is cell-based. The note with it: 144 h, HCT116-WT cells, 6 days, CellTiter Glo; read-out: HCT116-WT IC50. The procedure, abridged:
as §1

A further test concerns MTAP-deficient HCT116. The test can be described thus: Pharmacodynamic test in human colon cancer xenograft model (MTAP-deficient HCT116). The note with it: 100 mpk, orally by gavage once a day, HCT116 MTAP deficient mice xenograft. In kind it is in vivo. As for the experimental part: The compounds (100 mpk, blank vehicle as a control) were orally administered to the HCT116 MTAP deficient mice (cell source: creative biogene-CSC-RT2701) of human colon cancer xenograft model by gavage daily during the experimental planning period. The positive compound AMG9747 was synthesized according to the method reported in the patent WO2021163344A1. The compounds were formulated as follows: weighing 100.00 mg of a test compound, adding it to 10 mL of 0.5% MC4000+0.2% Tween 80, vortexing and shaking to prepare a suspension, i.e., a dose of 100 mpk. Each group had 8 mice and was subjected to administration by gavage once a day. The tumor volume was measured once in groups before administration, and measured on days 3, 6, 10, 13, 16 and 19 respectively after administration. The positive drug (synthesized according to the patent WO2021163344A1) AMG-9747 was used as a control, and compound AMG-9747 has a structure of: [drawing 1174] Table 3. Percentage of inhibition of the compounds of the present invention on tumor growth in the human colon cancer xenograft (MTAP-deficient HCT116) model

PRMT5-MTA, sequence (O14744 whole entry): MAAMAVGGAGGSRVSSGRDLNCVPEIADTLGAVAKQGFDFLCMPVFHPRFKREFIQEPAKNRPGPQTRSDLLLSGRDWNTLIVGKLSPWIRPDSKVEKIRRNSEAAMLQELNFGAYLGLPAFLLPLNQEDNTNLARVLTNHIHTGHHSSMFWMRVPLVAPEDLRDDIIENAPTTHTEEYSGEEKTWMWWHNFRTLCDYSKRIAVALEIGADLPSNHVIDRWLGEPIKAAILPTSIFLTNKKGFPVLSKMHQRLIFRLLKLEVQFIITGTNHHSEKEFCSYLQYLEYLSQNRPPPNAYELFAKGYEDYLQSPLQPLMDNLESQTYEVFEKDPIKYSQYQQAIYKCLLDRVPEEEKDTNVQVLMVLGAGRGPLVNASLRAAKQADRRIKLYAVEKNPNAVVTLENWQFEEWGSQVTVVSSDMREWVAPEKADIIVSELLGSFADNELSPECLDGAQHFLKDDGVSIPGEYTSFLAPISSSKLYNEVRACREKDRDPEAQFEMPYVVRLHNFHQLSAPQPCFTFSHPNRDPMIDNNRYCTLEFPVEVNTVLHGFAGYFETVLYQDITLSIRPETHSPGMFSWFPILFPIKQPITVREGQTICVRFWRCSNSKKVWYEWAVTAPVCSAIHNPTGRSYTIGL
PRMT5-MTA, sequence (Q9BQA1 whole entry partner): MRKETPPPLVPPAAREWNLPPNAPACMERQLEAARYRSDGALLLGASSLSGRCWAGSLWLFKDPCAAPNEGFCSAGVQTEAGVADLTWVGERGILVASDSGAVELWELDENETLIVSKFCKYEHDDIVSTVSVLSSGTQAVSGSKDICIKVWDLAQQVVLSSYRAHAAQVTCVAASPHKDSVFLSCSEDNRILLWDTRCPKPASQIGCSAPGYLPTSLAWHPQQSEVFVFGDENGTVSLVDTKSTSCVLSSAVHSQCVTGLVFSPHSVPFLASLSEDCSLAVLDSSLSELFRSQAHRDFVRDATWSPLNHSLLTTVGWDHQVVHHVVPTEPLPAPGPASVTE

Usually IC50 stands for the concentration that gives 50% inhibition. On to `Cc1cc2cc(C(=O)N(Cc3ccc(C(F)(F)F)cn3)N(c3ncccn3)C3CC3)ccc2nc1N` [Example 3, 2-amino-N'-cyclopropyl-3-methyl-N'-(pyrimidin-2-yl)-N-((5-(trifluoromethyl)pyridin-2-yl)methyl)quinoline-6-carbohydrazide], for which the values for the IC50 on PRMT5-MTA, in the test with HCT116 MTAP KO cells and in the test on HCT116-WT cells were 2.6 nM, 27 nM and 568 nM, respectively. In addition, the “Selectivity HCT 116-WT/ HCT116 MTAP KO” value in the test with HCT116 MTAP KO cells was 21.04. In addition, the “Percentage of tumor growth inhibition” value with MTAP-deficient HCT116 amounted to 86%.

With `Cc1cc2nc(N)c3cnn(C)c3c2cc1C(=O)N1CC(C)CN1c1ncc(Br)cc1F` (stereo not shown) [Example 392, (4-amino-1,7-dimethyl-1H-pyrazolo[4,3-c]quinolin-8-yl)(2-(5-bromo-3-fluoropyridin-2-yl)-4-methylpyrazolidin-1-yl)metha none], the IC50 at PRMT5-MTA came to 4 nM; with HCT116 MTAP KO cells, 28 nM; in the test with HCT116-WT cells, 1130 nM. Also, the “Selectivity HCT 116-WT/ HCT116 MTAP KO” value with HCT116 MTAP KO cells is on record as 40.21. Further, the “Percentage of tumor growth inhibition” value in the test with MTAP-deficient HCT116 turned out to be 69%.

With `Cc1cc2cc(C(=O)N(Cc3ccc(-c4scnc4C)cn3)N(c3ncccn3)C3CC3)ccc2nc1N` [Example 184, 2-amino-N'-cyclopropyl-3-methyl-N-((5-(4-methylthiazol-5-yl)pyridin-2-yl)methyl)-N'-(pyrimidin-2-yl)quinoline-6-carbohydrazide], the results for the IC50 on PRMT5-MTA, in the test with HCT116 MTAP KO cells and in the test on HCT116-WT cells were 7.4 nM, 13 nM and 240 nM, respectively. The “Selectivity HCT 116-WT/ HCT116 MTAP KO” value in the test with HCT116 MTAP KO cells is listed as 18.46. For the same compound, the “Percentage of tumor growth inhibition” value in the test on MTAP-deficient HCT116 was determined as 81%.

With `Cc1cc2cc(C(=O)N(Cc3ccc(C(F)(F)F)cn3)[C@H](C)c3ncccn3)ccc2nc1N` [AMG-9747, reference compound], the “Percentage of tumor growth inhibition” value in the test on MTAP-deficient HCT116 worked out at 68%.

`Cc1cc2cc(C(=O)N(Cc3ccc(-c4cnn(C(F)(F)F)c4)cn3)N(C)c3ncccn3)ccc2nc1N` [Example 189, 2-amino-N',3-dimethyl-N'-(pyrimidin-2-yl)-N-((5-(1-(trifluoromethyl)-1H-pyrazol-4-yl)pyridin-2-yl)methyl)quinoline-6-carbohydrazide]: the IC50 was 1.7 nM at PRMT5-MTA, 55 nM in the test on HCT116 MTAP KO cells and 2310 nM in the test with HCT116-WT cells. Moreover, the “Selectivity HCT 116-WT/ HCT116 MTAP KO” value in the test with HCT116 MTAP KO cells is recorded as 42.00. For the same compound, the “Percentage of tumor growth inhibition” value with MTAP-deficient HCT116 came to 93%.

In the case of `Cc1cc2cc(C(=O)N(Cc3ccc(C(F)(F)F)cn3)N(C)c3ncccn3)ccc2nc1N` [Example 1, 2-amino-N',3-dimethyl-N'-(pyrimidin-2-yl)-N-((5-(trifluoromethyl)pyridin-2-yl)methyl) quinoline-6-carbohydrazide], the values for the IC50 on PRMT5-MTA, with HCT116 MTAP KO cells and with HCT116-WT cells were 1 nM, 32 nM and 623 nM, respectively. In addition, the “Selectivity HCT 116-WT/ HCT116 MTAP KO” value with HCT116 MTAP KO cells was 19.47. Also, in the test on MTAP-deficient HCT116, the “Percentage of tumor growth inhibition” value amounted to 80%.

Regarding `Cc1ccnc(N(C)N(Cc2ccc(C(F)(F)F)cn2)C(=O)c2ccc3nc(N)c(C)cc3c2)n1` [Example 49, 2-amino-N',3-dimethyl-N'-(4-methylpyrimidin-2-yl)-N-((5-(trifluoromethyl)pyridin-2-yl)methyl)quinoline-6-carbohydrazide], the IC50 on PRMT5-MTA worked out at 2.2 nM; in the test with HCT116 MTAP KO cells, 80 nM; in the test on HCT116-WT cells, 1770 nM. Moreover, in the test on HCT116 MTAP KO cells, the “Selectivity HCT 116-WT/ HCT116 MTAP KO” value turned out to be 22.18.

With `Cc1cc2cc(C(=O)N(Cc3ccc(C(F)(F)F)cn3)N(C)c3ncc4ccsc4n3)ccc2nc1N` [Example 92, 2-amino-N',3-dimethyl-N'-(thieno[2,3-d]pyrimidin-2-yl)-N-((5-(trifluoromethyl)pyridin-2-yl)methyl)quinoline-6-carbohydrazide], the results for the IC50 on PRMT5-MTA, with HCT116 MTAP KO cells and in the test on HCT116-WT cells were 2.1 nM, 19 nM and 569 nM, respectively. In addition, in the test on HCT116 MTAP KO cells, the “Selectivity HCT 116-WT/ HCT116 MTAP KO” value came out at 29.95.

`Cc1cc2cc(C(=O)N(Cc3ccc(C(F)(F)F)cn3)N(C)c3cccc(C(F)(F)F)n3)ccc2nc1N` [Example 88, 2-amino-N',3-dimethyl-N'-(6-(trifluoromethyl)pyridin-2-yl)-N-((5-(trifluoromethyl)pyridin-2-yl)methyl)quinoline-6-carbohydrazide]: the IC50 on PRMT5-MTA stood at 2.5 nM; in the test with HCT116 MTAP KO cells it was 176 nM; in the test on HCT116-WT cells, 2030 nM. In the test with HCT116 MTAP KO cells, the “Selectivity HCT 116-WT/ HCT116 MTAP KO” value came to 11.56.

With `Cc1cc2cc(C(=O)N(Cc3ccc(-c4cccnc4)cn3)N(C)c3ncccc3F)ccc2nc1N` [Example 163, N-([3,3'-bipyridine]-6-ylmethyl)-2-amino -N'-(3-fluoropyridin-2-yl)-N',3-dimethylq uinoline-6-carbohydrazide], the IC50 at PRMT5-MTA worked out at 1.4 nM; in the test with HCT116 MTAP KO cells it was 15 nM; in the test on HCT116-WT cells, 465 nM. In addition, in the test on HCT116 MTAP KO cells, the “Selectivity HCT 116-WT/ HCT116 MTAP KO” value came out at 31.00.

In the case of `Cc1cc2cc(C(=O)N(Cc3ccc(C(F)(F)F)cn3)N(C)c3nccc(C(F)(F)F)n3)ccc2nc1N` [Example 40, 2-amino-N',3-dimethyl-N-((5-(trifluoromethyl)pyridin-2-yl)methyl)-N'-(4-(trifluor omethyl)pyrimidin-2-yl)quinoline-6-carb ohydrazide], the figures for the IC50 on PRMT5-MTA, with HCT116 MTAP KO cells and with HCT116-WT cells were 1.7 nM, 83 nM and 2590 nM, respectively. In addition, the “Selectivity HCT 116-WT/ HCT116 MTAP KO” value in the test with HCT116 MTAP KO cells stood at 31.19.

Regarding `Cc1cc2cc(C(=O)N(Cc3ccc(Br)cn3)N(C)c3nccc4nccnc34)ccc2nc1N` [Example 73, 2-amino-N-((5-bromopyridin-2-yl)methyl)-N',3-dimethyl-N'-(pyrido[3,4-b]pyrazin-5-yl)quinoline-6-carbohydrazide], the IC50 at PRMT5-MTA is 2.5 nM; in the test with HCT116 MTAP KO cells it was 40 nM; in the test on HCT116-WT cells, 1200 nM. The “Selectivity HCT 116-WT/ HCT116 MTAP KO” value with HCT116 MTAP KO cells is recorded as 29.88.

Turning to `Cc1ncc(-c2ccc(CN(C(=O)c3ccc4nc(N)c(C)cc4c3)N(C)c3ncccn3)nc2)cn1` [Example 180, 2-amino-N',3-dimethyl-N-((5-(2-methylpyrimidin-5-yl)pyridin-2-yl)methyl)-N'-(pyrimidin-2-yl)quinoline-6-carbohydrazide], the IC50 was 3.2 nM on PRMT5-MTA, 41 nM in the test with HCT116 MTAP KO cells and 1880 nM in the test with HCT116-WT cells. Also, in the test with HCT116 MTAP KO cells, the “Selectivity HCT 116-WT/ HCT116 MTAP KO” value is 45.73.

For the compound `Cc1cc2nc(N)c3cnn(C)c3c2cc1C(=O)N1CC(C)CN1c1cccc(F)n1` (stereo not shown) [Example 360, (4-amino-1,7-dimethyl-1H-pyrazolo[4,3-c]quinolin-8-yl)(2-(6-fluoropyridin-2-yl)-4-methylpyrazolidin-1-yl)methanone], the figures for the IC50 on PRMT5-MTA, with HCT116 MTAP KO cells and in the test with HCT116-WT cells were 5.2 nM, 23 nM and 1170 nM, respectively. Further, the “Selectivity HCT 116-WT/ HCT116 MTAP KO” value in the test with HCT116 MTAP KO cells was 50.74.

Turning to `[2H]C([2H])([2H])N(c1ncccn1)N(Cc1ccc(Br)cn1)C(=O)c1ccc2nc(N)c(C)cc2c1` [Example 64, 2-amino-N-((5-bromopyridin-2-yl)methyl)-3-methyl-N'-(methyl-d3)-N'-(pyrimidin-2-yl)quinoline-6-carbohydrazide], the IC50 was determined as 1.7 nM on PRMT5-MTA, 38 nM in the test with HCT116 MTAP KO cells and 918 nM with HCT116-WT cells. For the same compound, the “Selectivity HCT 116-WT/ HCT116 MTAP KO” value with HCT116 MTAP KO cells is 24.16.

As to `COCc1ncsc1-c1ccc(CN(C(=O)c2ccc3nc(N)c(C)cc3c2)N(C)c2ncccn2)nc1` [Example 226, 2-amino-N-((5-(4-(methoxymethyl)thiazol-5-yl)pyridin-2-yl)methyl)-N',3-dimethyl-N'-(pyrimidin-2-yl)quinoline-6-carbohydrazide], the figures for the IC50 on PRMT5-MTA, with HCT116 MTAP KO cells and with HCT116-WT cells were 5 nM, 28 nM and 891 nM, respectively. In addition, in the test with HCT116 MTAP KO cells, the “Selectivity HCT 116-WT/ HCT116 MTAP KO” value was 31.82.

With `Cc1cc2nc(N)c3cnn(C)c3c2cc1C(=O)N1CC(C)CN1c1cc(F)ccc1F` (stereo not shown) [Example 335, (4-amino-1,7-dimethyl-1H-pyrazolo[4,3-c]quinolin-8-yl)(2-(2,5-difluorophenyl)-4-methylpyrazolidin-1-yl)methanone], the IC50 was found to be 3.3 nM at PRMT5-MTA, 15 nM in the test on HCT116 MTAP KO cells and 644 nM in the test on HCT116-WT cells. Besides, in the test on HCT116 MTAP KO cells, the “Selectivity HCT 116-WT/ HCT116 MTAP KO” value was 42.93.
